Data published in US20070066561A1, “Drug delivery and targeting with vitamin B12 conjugates” (New York University, priority 2002, published 2007).
Values after ≈ are worked out from the molar mass of the structure shown.

Tests used:
[1] = tested on: HL60 Promyelocytic leukemia; assay: Cytotoxicity against human cell lines grown in culture, MTT assay; format: cell-based; conditions: 72 hr continuous incubation, 5% human serum, relative cell growth by MTT, means of duplicate experiments
From the text: (§1) The data below are means of duplicate experiments with similar results.

[2] = tested on: K562 Erythroleukemia; assay: as above; format: cell-based; conditions: 72 hr continuous incubation, 5% human serum, relative cell growth by MTT, means of duplicate experiments
From the text: as §1

[3] = tested on: KARPAS-291 Lymphoma; assay: as above; format: cell-based; conditions: 72 hr continuous incubation, 5% human serum, relative cell growth by MTT, means of duplicate experiments
From the text: as §1

[4] = cited from earlier work
[5] = between pH about 4 and 7; cited from earlier work
[6] = molecular target: T1, transcobalamin II (TCII) (Homo sapiens, UniProt P20062); assay: Binding to transcobalamin II; conditions: compared with control vitamin B12; listed as p-iodohippuric acid TFP ester conjugated to the e-cyanocobalamin via the 4,7,10-
T1 sequence (P20062 19-427): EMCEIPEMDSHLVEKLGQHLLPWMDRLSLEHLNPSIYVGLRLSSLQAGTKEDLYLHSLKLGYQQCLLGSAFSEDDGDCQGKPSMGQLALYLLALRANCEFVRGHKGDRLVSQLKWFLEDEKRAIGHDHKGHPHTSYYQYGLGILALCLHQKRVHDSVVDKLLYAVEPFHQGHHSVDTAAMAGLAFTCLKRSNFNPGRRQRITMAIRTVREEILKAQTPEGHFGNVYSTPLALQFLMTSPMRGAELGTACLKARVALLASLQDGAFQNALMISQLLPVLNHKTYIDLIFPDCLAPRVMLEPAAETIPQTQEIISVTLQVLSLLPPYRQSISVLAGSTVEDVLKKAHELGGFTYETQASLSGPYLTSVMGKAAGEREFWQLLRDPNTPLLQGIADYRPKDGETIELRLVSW
Method: This conjugate may be used as a standard for future B12 derivatives because of its higher rate of binding to TCII, which is required for efficient delivery to the appropriate receptors.
The p-iodohippuric acid TFP ester conjugated to the e-cyanocobalamin via the 4,7,10-trioxa-1,13-tridecanediamine linker was assessed for binding to transcobalamin II (TCII).

[7] = Bioactivity of cobalamin conjugates (test not described)

With cyanocobalamin [B12] the “Cytotoxicity, HL60 Promyelocytic leukemia” value [1] was 152 ng/mL, the “Cytotoxicity, K562 Erythroleukemia” value [2] was 250 ng/mL and the “Cytotoxicity, KARPAS-291 Lymphoma” value [3] was 294 ng/mL. The “Solubility in acetone, ether, and chloroform” value [4] was “insoluble”, the “Solubility in lower alcohols and phenol” value [4] was “moderately soluble” and the Solubility in water ([4]; room temperature) was 12 mg/mL. For the same compound, the “Stability in aqueous solutions” value [5] was “quite stable”.
For “B12-P-Hippuric acid-4,7,10-trioxa-1,13-tridecanediamine e-cyanocobalamin monocarboxylic acid conjugate [B12 P-Hippuric acid]”, the “Binding to TCII” value [6] was “substantially as great as for control vitamin B12” and the Bioactivity [7] was “bioactive”.
In the case of “p-iodohippuryl-1,12-diaminododecane conjugated to cyanocobalamin-e-carboxylate”, the Bioactivity [7] is reported as “most bioactive conjugate studied”.
For CC(=O)O[C@H]1C(=O)[C@@]2(C)[C@H]([C@H](OC(=O)c3ccccc3)[C@]3(O)C[C@H](OC(=O)[C@H](O)[C@@H](NC(=O)c4ccccc4)c4ccccc4)C(C)=C1C3(C)C)[C@]1(OC(C)=O)CO[C@@H]1C[C@@H]2O [Taxol, Paclitaxel], the IC50 ([1]; HL-60) was 0.15 ng/mL (≈ 0.176 nM), the IC50 ([2]; K562) was 4 ng/mL (≈ 4.68 nM) and the IC50 [3] was 2 ng/mL (≈ 2.34 nM).
